In article PMC7778589, “Photosensitizer-based multimodal PSMA-targeting ligands for intraoperative detection of prostate cancer” (Theranostics, 2021):

What was measured:
In vitro serum stability = type: in vitro ADME, human; details: 2 h, 37°C, RP-HPLC
Experimental: (§1) Binding and internalization characteristics of all ligands were compared using LS174T-PSMA and wildtype LS174T cells. Cells were cultured to confluency in 6-wells plates followed by incubation at 37 °C for 2 h in 1 ml binding buffer (RPMI/0.5% BSA) with 50,000 counts per minute (cpm) of ^111In-labeled ligand (0.1-0.25 pmol/well). Nonspecific binding was determined by coincubation with 2-(phosphonomethyl)pentane-1,5-dioic acid (2-PMPA, 21.57 µM). PSMA-specific binding was defined as nonspecific binding subtracted from total binding. To retrieve the membrane-bound fraction, cells were washed with PBS twice and incubated with acid buffer (0.1 M acetic acid, 154 mM NaCl, pH 2.6) for 10 minutes at 0 °C. After incubation, the membrane bound fraction (in acid buffer) was collected, cells were washed, lysed with 0.1 M NaOH and cell lysis (intercellular activity) was collected. Membrane-bound activity and intercellular activity fractions were measured in a gamma-counter (2480 WIZARD^2 Automatic Gamma Counter, PerkinElmer), [25]. Human serum was used to determine the in vitro serum stability of the multimodal ligands (0.8 µg/ml serum, 5 MBq/μg labeling). After incubation for 2 h at 37°C, serum proteins were precipitated by adding a 1:1 (v/v) volume of acetonitrile followed by 5 min of centrifugation at 3220×g. Stability was evaluated by RP-HPLC analysis after 2 h of incubation at 37 °C. […]

[1] = molecular target: T1, PSMA-expressing LS174T cells (LS174T-PSMA) (Homo sapiens, UniProt Q04609); assay: Binding and internalization assay with 111In-labeled ligands; type: cell-based; details: 2 h 37 °C
T1 construct: expressed in transfected cells; host or cells: LS174T colon carcinoma cells (human), stably transfected with pcDNA3.1-hPSMA
T1 sequence (Q04609 whole entry): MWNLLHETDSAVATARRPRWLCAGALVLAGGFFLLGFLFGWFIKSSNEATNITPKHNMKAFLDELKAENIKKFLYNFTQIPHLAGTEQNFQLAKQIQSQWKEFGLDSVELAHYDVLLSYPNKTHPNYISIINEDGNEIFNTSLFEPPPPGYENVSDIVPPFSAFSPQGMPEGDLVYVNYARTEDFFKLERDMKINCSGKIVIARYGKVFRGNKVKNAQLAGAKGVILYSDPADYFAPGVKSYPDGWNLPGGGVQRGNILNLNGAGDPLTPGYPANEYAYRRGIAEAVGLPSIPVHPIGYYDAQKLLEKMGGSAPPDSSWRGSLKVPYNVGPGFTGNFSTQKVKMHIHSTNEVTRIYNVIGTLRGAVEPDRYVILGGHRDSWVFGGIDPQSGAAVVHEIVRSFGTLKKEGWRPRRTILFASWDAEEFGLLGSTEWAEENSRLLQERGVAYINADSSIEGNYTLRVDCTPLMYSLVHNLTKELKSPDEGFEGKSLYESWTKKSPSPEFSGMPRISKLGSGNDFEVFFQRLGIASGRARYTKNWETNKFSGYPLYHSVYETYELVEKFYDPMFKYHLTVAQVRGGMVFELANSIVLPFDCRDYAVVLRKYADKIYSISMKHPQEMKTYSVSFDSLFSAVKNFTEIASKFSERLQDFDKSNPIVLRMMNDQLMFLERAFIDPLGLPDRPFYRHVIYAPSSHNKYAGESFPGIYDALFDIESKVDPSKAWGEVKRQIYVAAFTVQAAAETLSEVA
Experimental: Cell lines were purchased from the American Type Culture Collection. LS174T colon carcinoma cells were stably transfected with human PSMA using the plasmid pcDNA3.1-hPSMA and cultured in RPMI 1640 medium supplemented with 2 mM glutamine, 10% FCS, and 0.3 mg/ml G418 at 37 °C in a humidified atmosphere with 5% CO2 [5].
Binding and internalization characteristics of all ligands were compared using LS174T-PSMA and wildtype LS174T cells. Cells were cultured to confluency in 6-wells plates followed by incubation at 37 °C for 2 h in 1 ml binding buffer (RPMI/0.5% BSA) with 50,000 counts per minute (cpm) of ^111In-labeled ligand (0.1-0.25 pmol/well). Nonspecific binding was determined by coincubation with 2-(phosphonomethyl)pentane-1,5-dioic acid (2-PMPA, 21.57 µM). PSMA-specific binding was defined as nonspecific binding subtracted from total binding. To retrieve the membrane-bound fraction, cells were washed with PBS twice and incubated with acid buffer (0.1 M acetic acid, 154 mM NaCl, pH 2.6) for 10 minutes at 0 °C. After incubation, the membrane bound fraction (in acid buffer) was collected, cells were washed, lysed with 0.1 M NaOH and cell lysis (intercellular activity) was collected. Membrane-bound activity and intercellular activity fractions were measured in a gamma-counter (2480 WIZARD^2 Automatic Gamma Counter, PerkinElmer), [25]. Human serum was used to determine the in vitro serum stability of the multimodal ligands (0.8 µg/ml serum, 5 MBq/μg labeling). After incubation for 2 h at 37°C, serum proteins were precipitated by adding a 1:1 (v/v) volume of acetonitrile followed by 5 min of centrifugation at 3220×g. Stability was evaluated by RP-HPLC analysis after 2 h of incubation at 37 °C. […] Experimental details are described in the supplementary materials and methods.

[2] = Lipophilicity, PBS/n-octanol; type: physicochemical; details: radiolabeled ligand
Experimental: Tubes were vortexed vigorously for 1 min and centrifuged for 5 min at 201×g for phase separation. The concentration of radioactivity in a defined volume of each layer was measured in a well-type gamma-counter.

[3] = system: LS174T-PSMA and LS174T xenografts; assay: Biodistribution of 111In-labeled multimodal ligands; type: in vivo, BALB/c nude mice; details: 0.3 nmol, 2 h p.i.
Experimental: Animal experiments were performed in 8-10 weeks old male BALB/c nude mice (Janvier). Animals were housed in individually ventilated cages (Blue line IVC, 4-5 mice per cage) under nonsterile standard conditions with cage enrichment present and free access to chlorophyll-free animal chow (Sniff GmbH) and water. Mice were subcutaneously inoculated with 3.0 x 10^6 LS174T-PSMA cells in the left flank and 1.5 × 10^6 LS174T cells in the right flank, diluted in 200 μL of complete RPMI 1640 medium. Eleven days after tumor cell inoculation when xenografts were approximately 0.1 cm^3, tracers were injected intravenously via the tail vein. The researchers were not blinded for the experimental groups and tumor-bearing mice were block-randomized into groups based on tumor size. All experiments were approved by the institutional Animal Welfare Committee of the Radboud university medical center and were conducted in accordance to the guidelines of the Revised Dutch Act on Animal Experimentation.
Mice were injected intravenously with 10 MBq ^111In-labeled PSMA ligands (0.3 nmol, molar activity 33.3 MBq/nmol) in PBS/0.5% BSA. Two hours post injection, mice were euthanized by CO2/O2-asphyxation and images were acquired with the IVIS fluorescence imaging system (Xenogen VivoVision IVIS Lumina II, Caliper Life Sciences), using an acquisition time of 10 s. Subsequently, µSPECT/CT images were acquired (U-SPECT II, MILabs) with a 1.0 mm diameter pinhole mouse collimator tube [26]. Mice were scanned for 30 min followed by a CT scan (spatial resolution 160 μm, 65 kV, 615 μA) for anatomical reference. µSPECT/CT scans were reconstructed with MILabs reconstruction software, using an ordered-subset expectation maximization algorithm, energy windows 154 - 188 keV and 220-270 keV, 3 iterations, 16 subsets, voxel size of 0.4 mm. SPECT/CT scans were analyzed and maximum intensity projections (MIPs) were created using the Inveon Research Workplace software version 4.1 (Siemens Preclinical Solutions). NIRF images were analyzed using Living Image software version 4.2 (Caliper Life Sciences). Tissues of interest were dissected, weighed and measured for radioactivity in a gamma-counter as described above. In the fluorescence-guided surgery feasibility study, pre-operative imaging was performed to visualize tumor tissue. After white light resection, NIRF imaging was repeated to assess if any remaining tumor was present.

[4] = molecular target: T2, LS174T-PSMA-positive cells (Homo sapiens, UniProt Q04609); assay: Scatchard analysis (Kd); type: binding; details: on ice 4 h
T2 construct: expressed in transfected cells; host or cells: LS174T colon carcinoma cells (human), stably transfected with pcDNA3.1-hPSMA
T2 sequence (Q04609 whole entry): as above
Experimental: as §1, with “After incubation, the membrane bound fraction (in acid buffer) was collected, cells were washed, lysed with 0.1 M NaOH and cell lysis (intercellular activity) was collected.” left out, “Human serum was used to determine the in vitro serum stability of the multimodal ligands (0.8 µg/ml serum, 5 MBq/μg labeling). After incubation for 2 h at 37°C, serum proteins were precipitated by adding a 1:1 (v/v) volume of acetonitrile followed by 5 min of centrifugation at 3220×g.” left out
(§2) Scatchard analysis was performed to determine the dissociation constant (Kd) of the N064 ligand. […] Non-specific binding was determined by coincubation with 1 µM PSMA-617. […] Cell lysis was collected from the plate and the cell-associated activity was measured in a γ-counter. […] To determine PSMA antigen density per cell and the Kd of multimodal ligands, data were analyzed by linear regression using GraphPad Prism software. […]

[5] = molecular target: T3, PSMA-expressing LS174T-PSMA cells (Homo sapiens, UniProt Q04609); assay: Competitive binding assay (IC50); details: on ice 2 h
T3 construct: expressed in transfected cells; host or cells: LS174T colon carcinoma cells (human), stably transfected with pcDNA3.1-hPSMA
T3 sequence (Q04609 whole entry): as above
Experimental: as §1, with “After incubation, the membrane bound fraction (in acid buffer) was collected, cells were washed, lysed with 0.1 M NaOH and cell lysis (intercellular activity) was collected.” left out, “Human serum was used to determine the in vitro serum stability of the multimodal ligands (0.8 µg/ml serum, 5 MBq/μg labeling). After incubation for 2 h at 37°C, serum proteins were precipitated by adding a 1:1 (v/v) volume of acetonitrile followed by 5 min of centrifugation at 3220×g.” left out
as §2

## C[Si](C)(CCC[N+](CCCS(=O)(=O)O)(CCCS(=O)(=O)O)CCCS(=O)(=O)O)O[Si-2]123(O[Si](C)(C)CCC[N+](CCCS(=O)(=O)O)(CCCS(=O)(=O)O)CCCS(=O)(=O)O)n4c5c6ccccc6c4N=C4c6cccc(OCCCOC(=O)NCCCCCC(=O)NCCCC[C@H](NC(=O)CCC(C(=O)O)N7CCN(CC(=O)O)CCN(CC(=O)O)CCN(CC(=O)O)CC7)C(=O)NCCOCCOCCOCCOCCC(=O)N[C@H](Cc7ccccc7)C(=O)N[C@@H](CCC(=O)O)C(=O)N[C@@H](CCC(=O)O)C(=O)NCCCCCC(=O)NCCCC[C@H](NC(=O)N[C@@H](CCC(=O)O)C(=O)O)C(=O)O)c6C(=[N+]41)N=c1c4ccccc4c(n12)=NC1=[N+]3C(=N5)c2ccccc21.[Na+].[Na+].[Na+].[Na+] (stereo partly drawn) [N111]
In vitro serum stability
  Stability in human serum: stable
[1]
  Internalized fraction: 0.9 ± 0.06
  Membrane bound fraction: 0.4 ± 0.05
[2]
  LogD: -2.4 ± 0.15
[3]
  Adrenals: 0.9 %ID/g
  Blood: 0.2 %ID/g
  Bone: 0.3 %ID/g
  Bone marrow: 0.3 %ID/g
  Duodenum: 0.2 %ID/g
  Heart: 0.3 %ID/g
  Kidney: 59 %ID/g
  Liver: 0.5 %ID/g
  Lung: 0.4 %ID/g
  Muscle: 0.1 %ID/g
  Pancreas: 0.2 %ID/g
  Prostate: 0.5 %ID/g
  Salivary glands: 0.4 %ID/g
  Spleen: 1.3 %ID/g
  Stomach: 0.3 %ID/g
  Tumor+ LS174T-PSMA: 6.5 %ID/g
  Tumor- LS174T: 0.4 %ID/g
  Tumor/Blood ratio: 41.1
  Tumor/Kidney ratio: 0.2
  Tumor/Liver ratio: 13.7
  Tumor/Muscle ratio: 71.9
  Tumor/Negative tumor ratio: 24.1
  Tumor/Prostate ratio: 17.2
  Tumor/Salivary gland ratio: 21.5
  Tumor/Spleen ratio: 5.7

## C[Si](C)(CCC[N+](CCCS(=O)(=O)O)(CCCS(=O)(=O)O)CCCS(=O)(=O)O)O[Si-2]123(O[Si](C)(C)CCC[N+](CCCS(=O)(=O)O)(CCCS(=O)(=O)O)CCCS(=O)(=O)O)n4c5c6ccccc6c4N=C4c6cccc(OCCCOC(=O)NCCCCCC(=O)NCCCC[C@H](NC(=O)CCOCCOCCOCCOCCNC(=O)CCC(C(=O)O)N7CCN(CC(=O)O)CCN(CC(=O)O)CCN(CC(=O)O)CC7)C(=O)N[C@H](Cc7ccccc7)C(=O)N[C@@H](CCC(=O)O)C(=O)N[C@@H](CCC(=O)O)C(=O)NCCCCCC(=O)NCCCC[C@H](NC(=O)N[C@@H](CCC(=O)O)C(=O)O)C(=O)O)c6C(=[N+]41)N=c1c4ccccc4c(n12)=NC1=[N+]3C(=N5)c2ccccc21.[Na+].[Na+].[Na+].[Na+] (stereo partly drawn) [NJ26]
[1]
  Internalized fraction: 1.8 ± 0.03
  Membrane bound fraction: 0.5 ± 0.05
[2]
  LogD: -2.4 ± 0.13
[3]
  Adrenals: 1.5 %ID/g
  Blood: 0.3 %ID/g
  Bone: 0.2 %ID/g
  Bone marrow: 0.4 %ID/g
  Duodenum: 0.3 %ID/g
  Heart: 0.3 %ID/g
  Kidney: 59.9 %ID/g
  Liver: 0.6 %ID/g
  Lung: 0.5 %ID/g
  Muscle: 0.2 %ID/g
  Pancreas: 0.2 %ID/g
  Prostate: 0.5 %ID/g
  Salivary glands: 0.4 %ID/g
  Spleen: 0.9 %ID/g
  Stomach: 0.3 %ID/g
  Tumor+ LS174T-PSMA: 11.5 %ID/g
  Tumor- LS174T: 0.4 %ID/g
  Tumor/Blood ratio: 49.1
  Tumor/Kidney ratio: 0.2
  Tumor/Liver ratio: 21.3
  Tumor/Muscle ratio: 116.4
  Tumor/Negative tumor ratio: 31.7
  Tumor/Prostate ratio: 29.4
  Tumor/Salivary gland ratio: 35
  Tumor/Spleen ratio: 14.2

## C[Si](C)(CCC[N+](CCCS(=O)(=O)O)(CCCS(=O)(=O)O)CCCS(=O)(=O)O)O[Si-2]123(O[Si](C)(C)CCC[N+](CCCS(=O)(=O)O)(CCCS(=O)(=O)O)CCCS(=O)(=O)O)n4c5c6ccccc6c4N=C4c6cccc(OCCCOC(=O)NCCCCCC(=O)NCCCC[C@H](NC(=O)CCOCCOCCOCCOCCNC(=O)CN7CCN(CC(=O)O)CCN(CC(=O)O)CCN(CC(=O)O)CC7)C(=O)N[C@H](Cc7ccccc7)C(=O)N[C@@H](CCC(=O)O)C(=O)N[C@@H](CCC(=O)O)C(=O)NCCCCCC(=O)NCCCC[C@H](NC(=O)N[C@@H](CCC(=O)O)C(=O)O)C(=O)O)c6C(=[N+]41)N=c1c4ccccc4c(n12)=NC1=[N+]3C(=N5)c2ccccc21.[Na+].[Na+].[Na+].[Na+] [NJ27]
[1]
  Internalized fraction: 1.1 ± 0.05
  Membrane bound fraction: 0.3 ± 0.04
[2]
  LogD: -2.3 ± 0.11
[3]
  Adrenals: 0.7 %ID/g
  Blood: 0.2 %ID/g
  Bone: 0.2 %ID/g
  Bone marrow: 0.4 %ID/g
  Duodenum: 0.2 %ID/g
  Heart: 0.3 %ID/g
  Kidney: 51.4 %ID/g
  Liver: 0.6 %ID/g
  Lung: 0.3 %ID/g
  Muscle: 0.1 %ID/g
  Pancreas: 0.2 %ID/g
  Prostate: 0.3 %ID/g
  Salivary glands: 0.3 %ID/g
  Spleen: 0.6 %ID/g
  Stomach: 0.2 %ID/g
  Tumor+ LS174T-PSMA: 9.1 ± 2 %ID/g
  Tumor- LS174T: 0.4 %ID/g
  Tumor/Blood ratio: 62.6
  Tumor/Kidney ratio: 0.2
  Tumor/Liver ratio: 15.9
  Tumor/Muscle ratio: 106.4
  Tumor/Negative tumor ratio: 27.1
  Tumor/Prostate ratio: 32.7
  Tumor/Salivary gland ratio: 33.2
  Tumor/Spleen ratio: 17.3

## O=C(O)CC[C@H](NC(=O)N[C@@H](CCCCNC(=O)[C@H](Cc1ccc2ccccc2c1)NC(=O)[C@H]1CC[C@H](CNC(=O)CN2CCN(CC(=O)O)CCN(CC(=O)O)CCN(CC(=O)O)CC2)CC1)C(=O)O)C(=O)O [PSMA-617]
[4]
  Kd: 15 ± 1.1 nM
[5]
  IC50: 52.7 nM
